pIC50: −log10 of the molar value.
Assays:
[1] = system: human pancreatic cancer cell line PANC-1; experiment: Cytotoxic effect, human pancreatic cancer cell line PANC-1; conditions: PANC-1, read-out: IC50 (50% inhibition percentage)
Text: (§1) Concentration dependence of the cytotoxic effect of the compound of formula (I) and the compound of formula (II) was examined as described below.

[2] = system: cytochrome C; experiment: Cytochrome C release from mitochondria into cytoplasm in MV4-11 cells; assay type: cell-based, human; conditions: (I) 0.1 and 1 μM, (II) 0.01, 0.1 and 1 μM, incubation five hours
Method: In the above described Pharmaceutical Interview Form, “cytochrome C” that flowed out from mitochondria into cytoplasm is described as “pro-apoptotic protein.” Therefore, human acute myelocytic leukemia cells MV4-11 were plated on a culture medium and cultured overnight. Then, the compound of formula (I) was added at concentrations of 0.1 μM and 1 μM, and the compound of formula (II) was added at concentrations of 0.01 μM, 0.1 μM, and 1 μM. After incubation for five hours, a cytoplasm fraction and a mitochondrial fraction were extracted and cytochrome C release was examined.

[3] = system: human acute myelocytic leukemia cell line MV4-11; experiment: Cytotoxic effect, human acute myelocytic leukemia cell line MV4-11; assay type: cell-based; conditions: Opti-MEM reduced-serum medium used for compound of formula (I), read-out: IC50 (50% inhibition percentage)
Text: as §1

[4] = system: human acute myelocytic leukemia cell line OCI-AML-2; experiment: Mouse model of human acute myelocytic leukemia (OCI-AML-2), subcutaneous transplant; assay type: in vivo; conditions: OCI-AML-2 s.c. mice; (II) i.v. weekly x2 at 100-300 mg/kg; (I) oral daily two weeks 100 mg/kg
Method: The effects of the compounds on suppressing tumor growth were compared in mice groups by using mice models which were generated by transplanting a human acute myelocytic leukemia cell line OCI-AML-2 subcutaneously into mice. The mice groups were the following: a control group; groups whose mice received the compound of formula (II) intravenously once every week for two weeks at a dose of 100 mg/kg, 200 mg/kg, or 300 mg/kg; and a group whose mice received the compound of formula (I) orally every day for two weeks at a dose of 100 mg/kg (see FIG. 5(1)).

[5] = system: human lung cancer cell line A549; experiment: Cytotoxic effect, human lung cancer cell line A549; conditions: A549, read-out: IC50 (50% inhibition percentage)
Text: as §1

[6] = system: BAX; experiment: BAX expression in cytoplasm and mitochondrial fractions of MV4-11 cells; assay type: cell-based, human; conditions: (I) 0.1 and 1 μM, (II) 0.01, 0.1 and 1 μM, incubation five hours
Method: Human acute myelocytic leukemia cells MV4-11 were plated on a culture medium and cultured overnight. Then, the compound of formula (I) was added at concentrations of 0.1 μM and 1 μM, and the compound of formula (II) was added at concentrations of 0.01 μM, 0.1 μM, and 1 μM. After incubation for five hours, a cytoplasm fraction and a mitochondrial fraction were extracted and BAX expression was examined.

[7] = human protein; cited from earlier work
[8] = system: human histiocytic lymphoma cell line U937; experiment: Mouse model of human histiocytic lymphoma (U937), subcutaneous transplant; assay type: in vivo; conditions: U937 s.c. mice; (II) i.v. weekly x2 at 200 or 300 mg/kg; (I) oral daily two weeks 100 mg/kg
Method: The effects of the compounds on suppressing tumor growth were compared in three groups by using mice models which were generated by transplanting a human histiocytic lymphoma cell line U937 subcutaneously into mice. The three groups were the following: a control group; a group whose mice received the compound of formula (II) intravenously at a frequency of once a week for two weeks at a dose of 200 mg/kg or 300 mg/kg; and a group whose mice received the compound of formula (I) orally every day for two weeks at a dose of 100 mg/kg.

[9] = system: caspase; experiment: Caspase activity of MV4-11 cells; assay type: cell-based, human
Method: According to the above described Pharmaceutical Interview Form, cytochrome C that flowed out from mitochondria into cytoplasm activates caspase, thereby inducing apoptosis. Therefore, human acute myelocytic leukemia cells MV4-11 were plated on a culture medium and cultured overnight. Then, the compound of formula (I) was added at concentrations of 1 pM, 0.01 nM, 0.1 nM, 1 nM, 0.01 μM, 0.1 μM, and 1 μM; and the compound of formula (II) was added at concentrations of 1 pM, 0.01 nM, 0.1 nM, 1 nM, 0.01 μM, and 0.1 μM. After incubation for 24 hours, the culture medium was collected and caspase activity was examined by a conventional known technique.

[10] = Solubility in water of compounds; assay type: physicochemical; conditions: (I): 10 mg/mL in physiological saline containing 0.5% CMC, sonication, (II): 10 and 20 mg/mL in physiological saline at 40° C. to 50° C.

In the case of `CC1(C)CCC(CN2CCN(c3ccc(C(=O)NS(=O)(=O)c4ccc(NCC5CCOCC5)c([N+](=O)[O-])c4)c(Oc4cnc5[nH]ccc5c4)c3)CC2)=C(c2ccc(Cl)cc2)C1` [compound of formula (I), Venetoclax], the pIC50 [1] was 6.00, the “amount of cytochrome C released from mitochondria into cytoplasm” value [2] was “increased depending on the concentration” and the pIC50 [3] was 6.80. The “effect on suppressing weight change” value [4] was “suppressed weight change”, the pIC50 [5] was 6.00 and the “BAX in the cytoplasm fraction” value [6] was “concentration-dependent decrease of BAX in the cytoplasm fraction”. The “binding percentage to protein” value [7] was at least 99.9%, the “effect of suppressing tumor growth” value [8] was “no effect of suppressing growth of U937” and the “caspase activity, concentration dependence” value ([9]; 1 pM to 1 μM (I), 1 pM to 0.1 μM (II), incubation 24 hours) was “increased depending on the concentration”. The “caspase activity at 0.1 μM, (I) versus (II)” value ([9]; concentration in terms of Venetoclax 0.1 μM, 24 hours) was “exactly the same caspase activity” and the “state of preparation in aqueous vehicle” value [10] was “uniform bright yellow opaque suspension”.

Source: patent US11524078B2, “Water-soluble macromolecular derivative of Venetoclax” (Delta-Fly Pharma, Inc., priority 2020, dated 2022)
